Key:
[1] = tested on: MES-SA cells
[2] = tested on: MDR gene in bone marrow cells; conditions: MDR1-transgenic mouse, simultaneous administration (Mickisch, 1991); cited from earlier work
[3] = tested on: MES-SA/Dx5 cells; assay: chemosensitization effect in doxorubicin-selected mdr1 variant; type: cell-based, human
[4] = tested on: EMT6 tumors; assay: in vivo chemosensitization of cyclophosphamide, subcutaneous EMT6 tumors in Balb/c mice; design: species or system murine (Balb/c mice); conditions: cyclophosphamide 40 mg/kg followed by GdT2BET 40 μmol/kg 5 min, or 5 min and 5 hr later; once a week for three weeks
Procedure: In vivo studies were carried out using Balb/c mice with EMT6 tumors implanted subcutaneously as described in Example 2. 4-Hydroxy cyclophosphamide was dissolved at a concentration of 5 mg/mL in 0.9% NaCl. GdT2BET was dissolved at a concentration of 2 mM in 5% mannitol. EMT6 tumors were implanted subcutaneously in the right flanks of Balb/c mice; 9 mice were in each group. Group #1 received cyclophosphamide (CY) at 40 mg/kg; group #2 received cyclophosphamide (CY) at 40 mg/kg followed by GdT2BET at 40 μmol/kg 5 min later; and group #3 received cyclophosphamide (CY) at 40 mg/kg followed by GdT2BET at 40 μmol/kg 5 min and 5 hr later. This protocol was repeated once a week for three weeks.

[5] = tested on: EMT6 tumors
[6] = tested on: MES-SA cells; type: cell-based, human
[7] = in vivo; cited from earlier work

## CC(=O)O[C@H]1C(=O)[C@@]2(C)[C@H]([C@H](OC(=O)c3ccccc3)[C@]3(O)C[C@H](OC(=O)[C@H](O)[C@@H](NC(=O)c4ccccc4)c4ccccc4)C(C)=C1C3(C)C)[C@]1(OC(C)=O)CO[C@@H]1C[C@@H]2O [paclitaxel]
[1]
  IC50 difference relative to control / cytotoxicity in the presence of texaphyrin (FIG. 2): enhanced cytotoxicity

## COc1ccc(CCN(C)CCCC(C#N)(c2ccc(OC)c(OC)c2)C(C)C)cc1OC (centres unmarked) [verapamil]
[2]
  reversal of drug resistance: circumvented in a dose-dependent manner

## CC(=O)[O-].CC(=O)[O-].CCc1c(CC)c2cc3nc(cnc4cc(OCCOCCOCCOC)c(OCCOCCOCCOC)cc4ncc4nc(cc1[n-]2)C(CCCO)=C4C)C(C)=C3CCCO.O.[Gd+3] [GdT2BET]
[3]; MES-SA/Dx5 compared with MES-SA
  mechanism of action of chemosensitization: P-glycoprotein-independent
[4]
  chemosensitization with cyclophosphamide in vivo: little chemosensitization occurred
[5]; ADR+2GdT2BET group (GdT2BET 5 min and 5 hr post ADR), first study
  cures (no evidence of disease at end of study): Two
[5]; ADR+2GdT2BET group, further study
  cures, further study: two
[5]; adriamycin 7.5 mg/kg iv followed by GdT2BET 40 μmol/kg iv, once a week for three weeks
  adriamycin cytotoxicity (tumor): clear enhancement of adriamycin cytotoxicity
[5]; after day 9, FIG. 1, n=14
  p, ADR+2GdT2BET versus ADR only: < 0.05
[5]; further study: ADR+2GdT2BET and three-step texaphyrin/ADR/texaphyrin
  cytotoxicity in further study: enhanced cytotoxicity
[1]
  enhancement of cytotoxicity of bleomycin: seen at all concentrations of bleomycin tested and at all three concentrations of texaphyrin tested
[1]; with bleomycin, 50 μM, 100 μM, and 150 μM GdT2BET, 48 hr
  percent survival of the cells: substantially less in the presence of texaphyrin

## bleomycin
[6]
  effectiveness in the presence of texaphyrin: effective
[3]
  effectiveness in the presence of texaphyrin: effective

## CN1CCN(CCCN2c3ccccc3Sc3ccc(C(F)(F)F)cc32)CC1 [trifluoperazine]
[7]
  dose-limiting toxicities as chemosensitizer: attributed to the inherent toxicity of the chemosensitizer and not due to enhanced chemotherapy toxicity

## COc1cc([C@@H]2c3cc4c(cc3[C@@H](O[C@@H]3O[C@@H]5CO[C@@H](C)O[C@H]5[C@H](O)[C@H]3O)[C@H]3COC(=O)[C@H]23)OCO4)cc(OC)c1O [etoposide]
[6]
  effectiveness in the presence of texaphyrin: effective
[3]
  effectiveness in the presence of texaphyrin: effective
[1]
  IC50 difference relative to control / cytotoxicity in the presence of texaphyrin (FIG. 2): enhanced cytotoxicity

## COc1cccc2c1C(=O)c1c(O)c3c(c(O)c1C2=O)C[C@@](O)(C(=O)CO)C[C@@H]3O[C@H]1C[C@H](N)[C@H](O)[C@H](C)O1 [doxorubicin]
[6]
  effectiveness in the presence of texaphyrin: effective
[3]
  effectiveness in the presence of texaphyrin: effective

## CC/C(=C(\c1ccccc1)c1ccc(OCCN(C)C)cc1)c1ccccc1 [tamoxifen]
[7]
  dose-limiting toxicities as chemosensitizer: attributed to the inherent toxicity of the chemosensitizer and not due to enhanced chemotherapy toxicity

## C=C[C@H]1C[N@@]2CC[C@H]1C[C@H]2[C@H](O)c1ccnc2ccc(OC)cc12 [quinine]
[2]
  reversal of drug resistance: circumvented in a dose-dependent manner

## N.N.[Cl][Pt][Cl] [cisplatin]
[6]
  effectiveness in the presence of texaphyrin: effective
[3]
  effectiveness in the presence of texaphyrin: effective
